{"source": "paper PMC6906431", "about": "“Selective small molecule PARG inhibitor causes replication fork stalling and cancer cell death” (Nature Communications, 2019)", "key": {"MCF-7 cells": {"test_system": "MCF-7 cells", "test": "Clonogenic survival assay", "type": "cell-based, human", "method": "(§1) Fig. 6 Selective inhibition of PARG by xanthine derivative JA2131. a Clonogenic survival assays of PC3, MDA-MB-231, and MCF-7 cells treated with PARGi. Cells were treated with either DMSO or 10 µM JA2131 for 2 h, irradiated with 3 Gy (MDA-MB-231 and MCF-7), 7 Gy (PC3) IR and grown for ~2 weeks, then colonies were fixed with methanol and stained with crystal violet. The results of three independent experiments are shown. Error bars = the standard error of the mean (SEM). b dose-response of JA2131 in MDA-MB-231 cells with and without IR. Cells were treated with designated concentrations of JA2131 for 2 h and then either left untreated or exposed to 3 Gy IR and allowed to recover for 1 h before lysis. Total protein was immunoblotted with anti-PAR antibody (upper panel), stripped and reprobed with anti-PCNA as a loading control. c MDA-MB-231 cells with stable scrambled shRNA (WT) or stable PARG shRNA, knockdown (KD), were treated with 5 μM JA2131 for 2 h, lysed and then total lysates were immunoblotted for anti-PAR (upper panel) followed by anti-PARG (upper middle panel), anti-PARP1 (lower middle panel) and anti-actin (bottom panel) antibody. […] Stable cells with scramble shRNA (control) and shPARG (PARG-KD) cells were treated with an increasing concentration of JA2131 for growth inhibitory IC50 determination. The data was normalized against 100% survival at the lowest inhibitor concentration. Error bars show the percent coefficient of variation. Equivalent concentrations of DMSO were used as a negative control. e The cytotoxicity of JA2131 along with PDD, Veliparib and Doxorubicin against MRC-5 cells. Error bars show the percent coefficient of variation. f CETSA for in-cell JA2131 target engagement. Normalized anti-PARG western blot intensities of three independent experiments were fitted as above and the estimated aggregation temperature (Tagg) is shown in the tabulated insert. Source Data are provided as a Source Data file.\n(§2) PC3, MDA-MB-231 cells were maintained in RPMI 1640, MCF-7 cells in Eagle’s Minimum Essential Medium (EMEM), MRC-5 cells in Eagle’s Minimum Essential Medium and Hela and U2OS cells in Dulbecco’s modified Eagle’s high glucose medium (DMEM) supplemented with 10% (vol/vol) fetal bovine serum (FBS) and 1% antibiotic/antimycotic (Lonza) in a humidified incubator with 10% CO2. All cell lines were purchased from ATCC and regularly checked for mycoplasma and cell authentication. SUM 149PT cells were cultured in F-12 Hams (Gibco) supplemented with 5% fetal bovine serum, insulin, and hydrocortisone. Colony formation assays were carried out in 6-well plates, 500 cells were used per well and following designated treatment, and colonies were grown for 2 weeks. Cells were fixed with methanol (100%), stained with crystal violet and analyzed using a GelCount instrument (Oxford Optronix Ltd). Crystal Violet C6158 was purchased from Sigma. PARG knockdown cells were generated by infecting MDA-MB-231 cells with shPARG lentiviral particles (sc-106355-V, Santa Cruz Biotechnology), which contain a pool of three shRNA plasmids. After 24 h infection, 3 µg/ml puromycin (Invitrogen) was added and antibiotic-resistant cells were further expanded and used for experimentation. Sequence-1; hairpin sequence: […], sense: […]tt, Antisense: […]tt. Sequence-2; hairpin sequence, […]-[…], sense: […]tt, antisense: […]tt. Sequence-3; hairpin sequence: […]-[…], sense: […]tt, antisense: […]-GGUUUCCtt. Control cells were generated using the same process except that scramble lentiviral particles with scrambled sequences were used (sc-108080).\n(§3) Supplementary Fig. 8: Clonogenic survival of cells in the presence of PARGi and PARPi (a)\n(§4) Clonogenic survival of PC3 cells in response to indicated compounds. ( b) Clonogenic survival of\n(§5) MDA-MB-231 cells in response to i ndicated compounds. (c) Clonogenic survival of MCF -7 cells\n(§6) in response to indicated compounds. […]"}, "PC3 cells [1]": {"test_system": "PC3 cells", "test": "Clonogenic survival assay", "type": "cell-based, human", "details": "PC3", "method": "as §1, §2, §3, §4, §5, §6"}, "PC3 cells [2]": {"test_system": "PC3 cells", "test": "Sulforhodamine B (SRB) cytotoxicity assay", "details": "72 h, without IR"}, "A172 glioblastoma cells": {"test_system": "A172 glioblastoma cells", "test": "Sulforhodamine B (SRB) cytotoxicity assay", "method": "(§7) Normalized % viabilities are plotted against log concentration. Error bars show the percent coefficient of variation. […] Mann-Whitney test was used to generate the p-value. The DNA spread assay is the representation of two independently repeated experiments. Source Data are provided as a Source Data file.\n(§8) Cells were plated in 96-well plates, treated as designated in reduced 5% FBS and fixed with trichloroacetic acid after 72 h, as previously described by[43]. […] Colorimetric or fluorescence analysis was performed in a FlexStation 3, using SoftMax Pro 7.0, Molecular Devices. Normalized graphs were generated with Prism 8 software, non-linear 4-parameter data fitting was performed for IC50 calculation."}, "[3]": {"test": "Sulforhodamine B (SRB) cytotoxicity assay", "type": "cell-based, human", "details": "human, MRC-5 cells", "method": "as §1"}, "[4]": {"test": "Sulforhodamine B (SRB) cytotoxicity assay", "details": "human, A172 glioblastoma cells", "method": "as §7, §8"}}, "note": "Where “and” joins values, the source holds several entries; their conditions need not be identical. Equal values may be shown once."}
{"smiles": "Cn1c(=S)c2[nH]c(SCCN3CCOCC3)nc2n(C)c1=O", "note": "[JA-2131]", "values": [{"measurement": "colony count (clonogenic survival, raw replicate data, Supplementary Figure 8)", "setting": "MCF-7 cells; Experiment-1, replicates 1-6", "result": "184 and 217 and 183 and 124 and 178 and 153"}, {"measurement": "colony count (clonogenic survival, raw replicate data, Supplementary Figure 8)", "setting": "MCF-7 cells; Experiment-2, replicates 1-6", "result": "141 and 190 (2×) and 218 and 209 and 269"}, {"measurement": "colony count (clonogenic survival, raw replicate data, Supplementary Figure 8)", "setting": "MCF-7 cells; Experiment-3, replicates 1-6", "result": "154 and 188 and 126 and 153 and 169 and 142"}, {"measurement": "colony count (clonogenic survival, raw replicate data, Supplementary Figure 8)", "setting": "PC3 cells [1]; Experiment-1, replicates 1-6", "result": "191 and 210 and 213 and 170 and 222 and 223"}, {"measurement": "colony count (clonogenic survival, raw replicate data, Supplementary Figure 8)", "setting": "PC3 cells [1]; Experiment-2, replicates 1-6", "result": "174 and 164 and 144 and 181 and 152 and 125"}, {"measurement": "colony count (clonogenic survival, raw replicate data, Supplementary Figure 8)", "setting": "PC3 cells [1]; Experiment-3, replicates 1-6", "result": "164 and 128 and 108 and 141 and 148 and 123"}]}
{"smiles": "[NH2][Pt]1([NH2])[O]CC(=O)[O]1", "note": "[Nedaplatin]", "values": [{"measurement": "IC50", "setting": "PC3 cells [2]", "result": "4.98 ± 0.2", "unit": "µM"}, {"measurement": "Viability", "setting": "PC3 cells [2]; log [concentration] μM 0.291", "result": 99.072, "unit": "%"}, {"measurement": "Viability", "setting": "PC3 cells [2]; log [concentration] μM 0.592", "result": 89.849, "unit": "%"}, {"measurement": "Viability", "setting": "PC3 cells [2]; log [concentration] μM 0.893", "result": 9.664, "unit": "%"}, {"measurement": "Viability", "setting": "PC3 cells [2]; log [concentration] μM 1.194", "result": 8.121, "unit": "%"}, {"measurement": "Viability", "setting": "PC3 cells [2]; log [concentration] μM 1.495", "result": 6.671, "unit": "%"}, {"measurement": "Viability", "setting": "PC3 cells [2]; log [concentration] μM 1.796", "result": 7.309, "unit": "%"}, {"measurement": "Viability", "setting": "PC3 cells [2]; log [concentration] μM -0.01", "result": 100, "unit": "%"}, {"measurement": "IC50", "setting": "A172 glioblastoma cells; 72 h", "result": "67.6 ± 46.5", "unit": "µM"}, {"measurement": "Viability", "setting": "A172 glioblastoma cells; 72 h, log [concentration] μM 0.291", "result": 99.176, "unit": "%"}, {"measurement": "Viability", "setting": "A172 glioblastoma cells; 72 h, log [concentration] μM 0.592", "result": 95.055, "unit": "%"}, {"measurement": "Viability", "setting": "A172 glioblastoma cells; 72 h, log [concentration] μM 0.893", "result": 88.736, "unit": "%"}, {"measurement": "Viability", "setting": "A172 glioblastoma cells; 72 h, log [concentration] μM 1.495", "result": 69.505, "unit": "%"}, {"measurement": "Viability", "setting": "A172 glioblastoma cells; 72 h, log [concentration] μM 1.796", "result": 60.165, "unit": "%"}, {"measurement": "Viability", "setting": "A172 glioblastoma cells; 72 h, log [concentration] μM 2.097", "result": 45.055, "unit": "%"}, {"measurement": "Viability", "setting": "A172 glioblastoma cells; 72 h, log [concentration] μM 2.398", "result": 21.154, "unit": "%"}, {"measurement": "Viability", "setting": "A172 glioblastoma cells; 72 h, log [concentration] μM 2.699", "result": 18.681, "unit": "%"}, {"measurement": "Viability", "setting": "A172 glioblastoma cells; 72 h, log [concentration] μM 3", "result": 18.681, "unit": "%"}, {"measurement": "Viability", "setting": "A172 glioblastoma cells; 72 h, log [concentration] μM -0.01", "result": 107.967, "unit": "%"}, {"measurement": "Viability", "setting": "A172 glioblastoma cells; 72 h, log [concentration] μM -0.312", "result": 100, "unit": "%"}]}
{"smiles": "C[C@]1(c2nc3c(C(N)=O)cccc3[nH]2)CCCN1", "note": "[Veliparib]", "values": [{"measurement": "viability at 72 h, 1.95 µM", "setting": "[3]; log [concentration] μM 0.29", "result": 90.5, "unit": "%"}, {"measurement": "viability at 72 h, 3.89 µM", "setting": "[3]; log [concentration] μM 0.59", "result": 94.5, "unit": "%"}, {"measurement": "viability at 72 h, 7.76 µM", "setting": "[3]; log [concentration] μM 0.89", "result": 86, "unit": "%"}, {"measurement": "viability at 72 h, 15.5 µM", "setting": "[3]; log [concentration] μM 1.19", "result": 85.3, "unit": "%"}, {"measurement": "viability at 72 h, 30.9 µM", "setting": "[3]; log [concentration] μM 1.49", "result": 89, "unit": "%"}, {"measurement": "viability at 72 h, 63.1 µM", "setting": "[3]; log [concentration] μM 1.8", "result": 77.6, "unit": "%"}, {"measurement": "viability at 72 h, 126 µM", "setting": "[3]; log [concentration] μM 2.1", "result": 70.3, "unit": "%"}, {"measurement": "viability at 72 h, 251 µM", "setting": "[3]; log [concentration] μM 2.4", "result": 58.2, "unit": "%"}, {"measurement": "viability at 72 h, 501 µM", "setting": "[3]; log [concentration] μM 2.7", "result": 34.2, "unit": "%"}, {"measurement": "viability at 72 h, 0.977 µM", "setting": "[3]; log [concentration] μM -0.01", "result": 89.2, "unit": "%"}, {"measurement": "viability at 72 h, 0.49 µM", "setting": "[3]; log [concentration] μM -0.31", "result": 90.8, "unit": "%"}, {"measurement": "viability at 72 h, 0.245 µM", "setting": "[3]; log [concentration] μM -0.61", "result": 100, "unit": "%"}, {"measurement": "IC50", "setting": "A172 glioblastoma cells; Homo sapiens, A 172, 72 h", "result": "153 ± 44.2", "unit": "µM"}, {"measurement": "viability at 72 h, 0.244 µM", "setting": "[4]", "result": 100, "unit": "%"}, {"measurement": "viability at 72 h, 0.488 µM", "setting": "[4]", "result": 104, "unit": "%"}, {"measurement": "viability at 72 h, 0.977 µM", "setting": "[4]", "result": 102, "unit": "%"}, {"measurement": "viability at 72 h, 1.95 µM", "setting": "[4]", "result": 106, "unit": "%"}, {"measurement": "viability at 72 h, 3.91 µM", "setting": "[4]", "result": 101, "unit": "%"}, {"measurement": "viability at 72 h, 7.82 µM", "setting": "[4]", "result": 104, "unit": "%"}, {"measurement": "viability at 72 h, 15.6 µM", "setting": "[4]", "result": 98.6, "unit": "%"}, {"measurement": "viability at 72 h, 31.3 µM", "setting": "[4]", "result": 94.1, "unit": "%"}, {"measurement": "viability at 72 h, 62.5 µM", "setting": "[4]", "result": 88.5, "unit": "%"}, {"measurement": "viability at 72 h, 125 µM", "setting": "[4]", "result": 69.1, "unit": "%"}, {"measurement": "viability at 72 h, 250 µM", "setting": "[4]", "result": 27.2, "unit": "%"}, {"measurement": "viability at 72 h, 500 µM", "setting": "[4]", "result": 15.4, "unit": "%"}]}
